Results reported in patent US20260265687A1, “OCULAR ORGANOIDS” (KONINKLIJKE NEDERLANDSE AKADEMIE VAN WETENSCHAPPEN, priority 2023, published 2026).

What was measured:
[1] = test system: human Adenovirus 8 (hAdV8); test: hAdV8 infection of organoid-derived conjunctival ALI cultures, viral titers by qPCR and cytopathic effects; format: cell-based; conditions: 17-day-old conjunctival ALI cultures, up to 96 hours; for reversal of adenoviral (hAdV8) infection: 10 μM Acyclovir, 60 μM Cidofovir or 20 μM Nelfinavir
Text: Adenoviruses are the leading cause of viral conjunctivitis. Yet, to date, no medication is available, partly because there is no model system for this type of ocular infection. An hAdV8 strain, isolated from a patient was provided by Dr. Nobuyo Yawata and Dr. Makoto Yawata (Kyushu University, Japan and NUS, Singapore) (see Yawata, N., and Yawata, M. 2022. Assessing the Response of Human NK Cell Subsets to Infection by Clinically Isolated Virus Strains. Methods Mol Biol 2463, 205-220. https://doi.org/10.1007/978-1-0716-2160-8_15). hAdV8 was added to 17-day-old conjunctival ALI cultures (FIG. 6E). Conjunctival ALI cultures were readily infected by hAdV8, as confirmed by the viral titre measured by qPCR (not shown). CPEs were visible starting from 48 hours after infection: infected cells darkened and were extruded from the epithelium. We then tested several antiviral drugs experimentally applied for adenoviral conjunctivitis (Acyclovir, Cidofovir and Nelfinavir) to test their efficacy in blocking the infection.
Human organoids (5-7 days after split) were harvested, trypsinized to single cells using 0.25% Trypsin/EDTA (ThermoFisher Scientific) for 5 minutes and 100,000 cells were seeded in 100 μL human expansion medium on 6.5 mm-wide transwells (Corning or Greiner). Human expansion medium was added to the lower compartment. After 3 to 4 days, when cells had reached confluency, medium from the upper compartment was removed to lift the cultures to air-liquid interface (ALI). The ALI cultures were maintained up to 22 days. The medium in the bottom compartment was changed every 3-4 days.
An hAdV8 strain isolated from a patient was used. Similar to HSV1 infection, hAdV8 at MOI 10 was added to the ALI culture in 50 μL PBS for 3 hours, before being washed away. Every 24 hours, the shed viruses were collected in 100 μL PBS and stored until further processing. If indicated, 10 μM Acyclovir (PHR1254, Sigma-Aldrich), 60 μM Cidofovir (C5874, Sigma-Aldrich) or 20 μM Nelfinavir (PZ0013, Sigma-Aldrich) was added to the bottom compartment after incubating with the virus. hAdV8-infected ALI cultures were kept for up to 4 days and, if required, fixed.
At the time of processing of the pellets for organoids and supernatants for ALI cultures, DNA was extracted using Zymogen Quick-DNA Microprep kit (ZY-D3020, Zymogen). DNA was systematically resuspended in 15 μL nuclease-free water (QIAGEN). Viral DNA was then quantified by qPCR as follow: 5 μL of the DNA extract was mixed together with 5 μL of SYBR green (Bio-Rad) containing HSV1 detection primers (HSV1-F: […] (SEQ ID NO: 13) and HSV1-R: […] (SEQ ID NO: 14)) or hAdV8 detection primers (hAdV8-F: […] (SEQ ID NO: 15) and hAdV8-R: […] (SEQ ID NO: 16). The SYBR green was mixed with 10 μM primer mix at a ratio 10:1. Technical duplicates were assessed by qPCR. The following program was used for viral DNA amplification: 95° C. for 2 minutes, followed by 40 cycles of 98° C. for 15 seconds, 60° C. for 15 seconds and 72° C. for 15 seconds. For quantifying the viral DNA content in ALI supernatants, we amplified 179 bp of HSV1-tdTomato genome using HSV1-F and HSV1-R and 1004 bp of the hAdV8 genome using hAdV8-F and hAdV8-R. We cloned both in a pJet vector (Thermo Fisher Scientific) and used it to make a standard curve ranging from 2.104 to 2.109 copies of viral genome according to Addgene instructions (https://www.addgene.org/protocols/aav-titration-qpcr-using-sybr-green-technology/). […]

[2] = test system: Herpes Simplex Virus 1 (HSV1); test: HSV1 infection of organoid-derived conjunctival ALI cultures, viral titers by qPCR; format: cell-based; conditions: 10 μM Acyclovir in bottom compartment after virus incubation; 17-day-old human conjunctival ALI cultures; followed 96 hours
Protocol: To model HSV1 infection, we exposed the apical surface of fully differentiated 17-day-old ALI cultures for 3 hours to an HSV1 strain whose capsid protein VP26 was tagged with tdTomato (hereafter called HSV1-tdTomato, FIG. 6A). HSV1 titrer increased by 5 logs over the course of 96 hours after initial incubation with HSV1, implying a productive infection of the conjunctival ALI culture with HSV1 (FIG. 6B). In addition, we observed that the tdTomato signal increased over time in HSV1-infected ALI cultures when imaged using an Auto-EVOS microscope (Thermo Fisher Scientific) (Data not shown). […] Acyclovir, an inhibitor of HSV1 DNA polymerase, is commonly given to patients with HSV1-induced conjunctivitis. Indeed, the infection was blocked when ALI cultures were treated with 10 μM Acyclovir (FIG. 6A-B). Thus, organoid-derived ALI cultures support HSV1 infection and represent a human ocular surface model for HSV1 infection.
Human organoids (5-7 days after split) were harvested, trypsinized to single cells using 0.25% Trypsin/EDTA (ThermoFisher Scientific) for 5 minutes and 100,000 cells were seeded in 100 μL human expansion medium on 6.5 mm-wide transwells (Corning or Greiner). […]
Herpes Simplex Virus 1 containing endogenously tagged […] capsid protein with tdTomato (HSV1-tdTomato) was used. […] Viral titer quantification was performed as indicated below. […]

Cc1c(O)cccc1C(=O)N[C@@H](CSc1ccccc1)[C@H](O)CN1C[C@H]2CCCC[C@H]2C[C@H]1C(=O)NC(C)(C)C [Nelfinavir]
reversal of adenoviral (hAdV8) infection [1]: only Cidofovir could reverse adenoviral infection

Nc1nc2c(ncn2COCCO)c(=O)[nH]1 [Acyclovir]
HSV1 infection (HSV1 titers detected by qPCR) [2]: blocked | reversal of adenoviral (hAdV8) infection [1]: only Cidofovir could reverse adenoviral infection

Nc1ccn(C[C@@H](CO)OCP(=O)(O)O)c(=O)n1 [Cidofovir]
reversal of adenoviral (hAdV8) infection [1]: could reverse adenoviral infection | cytopathic effects (CPEs) after hAdV8 infection ([1]; 60 μM Cidofovir): absence | hAdV8 viral titre (qPCR) ([1]; 60 μM Cidofovir): decrease
